Data from publication PMC12250302, “Synthesis, Antimicrobial Activities, and Model of Action of Novel Tetralone Derivatives Containing Aminoguanidinium Moiety” (International Journal of Molecular Sciences, 2025).
Converted amounts (≈) assume the structure as drawn. Read-outs that look alike come from different tables or passages of the source. Blank lines part the entries; values can stand above or below the molecule they belong to.

What was measured:
[1] = tested on: P. aeruginosa ATCC 27853; assay: MIC and MBC testing, broth microdilution; format: cell-based, Pseudomonas aeruginosa
In short: (§1)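 Controls comprised levofloxacin (positive) and 0.1% DMSO (negative). Compounds, serially halved in MH broth, met log-phase cells pre-diluted to 1 × 10^6 CFU/mL; after an 18 h, 37 °C incubation, absence of visible growth defined the MIC, triplicate per concentration.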

[2] = tested on: MRSA-1; assay: MIC and MBC testing, broth microdilution; format: cell-based, Staphylococcus aureus; settings: MRSA-1; for MIC: 18 h
In short: (§2)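 Strains (clinical S. aureus LMY45, LMY46, LMY48; MRSA-1) grown to logarithmic phase, diluted to 1 × 10^6 CFU/mL and exposed 18 h at 37 °C to twofold serial compound dilutions in Mueller-Hinton broth, triplicates. Outputs are MIC and bactericidal concentration (MBC).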

[3] = tested on: clinical S. aureus isolate LMY45; assay: MIC and MBC testing, broth microdilution; format: cell-based, Staphylococcus aureus; settings: LMY45; for MIC: 18 h
In short: as §2

[4] = tested on: clinical S. aureus isolate LMY48; assay: MIC and MBC testing, broth microdilution; format: cell-based, Staphylococcus aureus; settings: LMY48; for MIC: 18 h
In short: as §2

[5] = tested on: clinical S. aureus isolate LMY46; assay: MIC and MBC testing, broth microdilution; format: cell-based, Staphylococcus aureus; settings: LMY46; for MIC: 18 h
In short: as §2

[6] = tested on: MRSA-2; assay: MIC and MBC testing, broth microdilution; format: cell-based, Staphylococcus aureus; settings: MRSA-2; for MIC: 18 h
In short: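 Broth microdilution in MH broth; two-fold serial dilutions of DMSO-dissolved compound; inoculum 1 × 10^6 CFU/mL from log-phase culture; 37 °C, 18 h; triplicates; MBC also read.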

[7] = tested on: clinical S. aureus isolate LMY47; assay: MIC and MBC testing, broth microdilution; format: cell-based, Staphylococcus aureus; settings: LMY47; for MIC: 18 h
In short: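 Triplicate broth microdilution: MH broth, serial 2× dilution of compounds dissolved in DMSO, 1 × 10^6 CFU/mL bacteria grown to log phase, 18 h at 37 °C, followed by MBC determination.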

[8] = tested on: K. pneumoniae ATCC 700603; assay: MIC and MBC testing, broth microdilution; format: cell-based, Klebsiella pneumoniae
In short: as §1

[9] = tested on: S. aureus ATCC 29213; assay: MIC and MBC testing, broth microdilution; format: cell-based, Staphylococcus aureus; settings: S. aureus ATCC 29213; for MIC: 18 h
In short: as §1

[10] = tested on: E. coli ATCC 25922; assay: MIC and MBC testing, broth microdilution; format: cell-based, Escherichia coli
In short: as §1

[11] = tested on: E. faecium ATCC 35667; assay: MIC and MBC testing, broth microdilution; format: cell-based, Enterococcus faecium; settings: E. faecium ATCC 35667; for MIC: 18 h
In short: as §1

[12] = tested on: A. baumannii ATCC 19606; assay: MIC and MBC testing, broth microdilution; format: cell-based, Acinetobacter baumannii
In short: as §1

[13] = tested on: MRSA; assay: MIC testing, summary over MRSA strains; format: cell-based; settings: Staphylococcus aureus; against MRSA
Description: (§3) The minimum inhibitory concentration (MIC) of all synthesized compounds was tested by the broth microdilution method. In brief, compounds dissolved in DMSO were diluted twice continuously in a 96-well plate with MH broth. The ESKAPE pathogens (E. coli ATCC 25922, S. aureus ATCC 29213, K. pneumoniae ATCC 700603, A. baumannii ATCC 19606, P. aeruginosa ATCC 27853, and E. faecium ATCC 35667), clinical S. aureus isolates (LMY45, LMY46, LMY47, and LMY48) and methicillin-resistant Staphylococcus aureus (MRSA-1 and MRSA-2) were cultured in MH broth to logarithmic growth phase and then diluted to 1 × 10^6 CFU/mL in MH broth. Subsequently, the diluted bacterial solution was mixed with the diluted compound solution in a 96-well plate and incubated at 37 °C for a duration of 18 h. The MIC of the compounds was recorded as the lowest concentration at which no visible growth was observed. […] Each concentration was replicated thrice.

[14] = tested on: S. aureus, including MRSA; assay: MIC testing, summary over S. aureus strains; format: cell-based; settings: Staphylococcus aureus
Description: as §3

[15] = Pseudomonas aeruginosa, ATCC27853, 18 h, read-out: MIC
[16] = Staphylococcus aureus, read-out: MIC
[17] = Staphylococcus aureus, read-out: MBC
[18] = Klebsiella pneumoniae, ATCC700603, 18 h, read-out: MIC
[19] = Staphylococcus aureus, ATCC29213, read-out: MIC
[20] = Staphylococcus aureus, ATCC29213, read-out: MBC
[21] = Escherichia coli, ATCC25922, 18 h, read-out: MIC
[22] = Escherichia coli, ATCC25922, read-out: MBC
[23] = Enterococcus faecium, ATCC35667, read-out: MIC
[24] = Enterococcus faecium, ATCC35667, read-out: MBC
[25] = Acinetobacter baumannii, ATCC19606, 18 h, read-out: MIC
[26] = Acinetobacter baumannii, ATCC19606, read-out: MBC

MIC [1, 15]: > 32 µg/mL
MIC [2, 16]: 8 µg/mL (≈ 24 µM)
MIC [3, 16]: 4 µg/mL (≈ 12 µM)
MIC [4, 16]: 8 µg/mL (≈ 24 µM)
MIC [5, 16]: 4 µg/mL (≈ 12 µM)
MIC [6, 16]: 8 µg/mL (≈ 24 µM)
MIC [7, 16]: 8 µg/mL (≈ 24 µM)
MIC [8, 18]: 32 µg/mL (≈ 96 µM)
MIC [9, 19]: 8 µg/mL (≈ 24 µM)
MIC [10, 21]: 16 µg/mL (≈ 48 µM)
MIC [11, 23]: 16 µg/mL (≈ 48 µM)
MIC [12, 25]: 16 µg/mL (≈ 48 µM)
Molecule: [H]/N=C(\N)NN=C1CCCc2cc(OCc3ccc(C#N)cc3)ccc21 [Compound 1V, (E)-2-(6-((4-cyanobenzyl)oxy)-3,4-dihydronaphthalen-1(2H)-ylidene)hydrazine-1-carboximidamide]
MBC [2, 17]: 16 µg/mL (≈ 48 µM)
MBC [3, 17]: 8 µg/mL (≈ 24 µM)
MBC [4, 17]: 8 µg/mL (≈ 24 µM)
MBC [5, 17]: 32 µg/mL (≈ 96 µM)
MBC [6, 17]: 8 µg/mL (≈ 24 µM)
MBC [7, 17]: 32 µg/mL (≈ 96 µM)
MBC [9, 20]: 32 µg/mL (≈ 96 µM)
MBC [10, 22]: 32 µg/mL (≈ 96 µM)
MBC [11, 24]: > 32 µg/mL
MBC [12, 26]: 32 µg/mL (≈ 96 µM)

Molecule: (E)-2-(6-((2,4-dichlorobenzyl)oxy)-3,4-dihydro-1(2H)-naphthalenylidene)hydrazine-1-carboxamide [Compound 1O]
MIC ([1]; 18 h): >32/- µg/mL
MBC [2]: 16 µg/mL
MIC [2]: 1 µg/mL
MBC [3]: 16 µg/mL
MIC [3]: 2 µg/mL
MBC [4]: 2 µg/mL
MIC [4]: ≤ 1 µg/mL
MBC [5]: 8 µg/mL
MIC [5]: 4 µg/mL
MBC [6]: 8 µg/mL
MIC [6]: 2 µg/mL
MBC [7]: 4 µg/mL
MIC [7]: ≤ 1 µg/mL
MIC ([8]; 18 h): >32/- µg/mL
MBC [9]: 8 µg/mL
MIC [9]: 4 µg/mL
MBC [10]: 16 µg/mL
MIC ([10]; 18 h): 8 µg/mL
MBC [11]: 16 µg/mL
MIC [11]: 2 µg/mL
MBC [12]: 16 µg/mL
MIC ([12]; 18 h): 16 µg/mL

MIC [1, 15]: > 32 µg/mL
MIC [2, 16]: 4 µg/mL (≈ 10.4 µM)
MIC [3, 16]: 2 µg/mL (≈ 5.2 µM)
MIC [4, 16]: 2 µg/mL (≈ 5.2 µM)
MIC [5, 16]: 2 µg/mL (≈ 5.2 µM)
MIC [6, 16]: 2 µg/mL (≈ 5.2 µM)
MIC [7, 16]: 2 µg/mL (≈ 5.2 µM)
MIC [8, 18]: > 32 µg/mL
MIC [9, 19]: 2 µg/mL (≈ 5.2 µM)
MIC [10, 21]: 32 µg/mL (≈ 83.2 µM)
MIC [11, 23]: 2 µg/mL (≈ 5.2 µM)
MIC [12, 25]: 32 µg/mL (≈ 83.2 µM)
Molecule: [H]/N=C(\N)NN=C1CCCc2cc(OCc3cccc(-c4ccccc4)c3)ccc21 [Compound 1W, (E)-2-(6-([1,1’-biphenyl]-3-ylmethoxy)-3,4-dihydronaphthalen-1(2H)-ylidene)hydrazine-1-carboximidamide]
MBC [2, 17]: 32 µg/mL (≈ 83.2 µM)
MBC [3, 17]: 8 µg/mL (≈ 20.8 µM)
MBC [4, 17]: 4 µg/mL (≈ 10.4 µM)
MBC [5, 17]: 8 µg/mL (≈ 20.8 µM)
MBC [6, 17]: 4 µg/mL (≈ 10.4 µM)
MBC [7, 17]: 8 µg/mL (≈ 20.8 µM)
MBC [9, 20]: 16 µg/mL (≈ 41.6 µM)
MBC [10, 22]: 32 µg/mL (≈ 83.2 µM)
MBC [11, 24]: 16 µg/mL (≈ 41.6 µM)
MBC [12, 26]: 32 µg/mL (≈ 83.2 µM)

MIC [1, 15]: 16 µg/mL (≈ 44.3 µM)
MIC [2, 16]: 2 µg/mL (≈ 5.54 µM)
MIC [3, 16]: 2 µg/mL (≈ 5.54 µM)
MIC [4, 16]: 4 µg/mL (≈ 11.1 µM)
MIC [5, 16]: 1 µg/mL (≈ 2.77 µM)
MIC [6, 16]: 1 µg/mL (≈ 2.77 µM)
MIC [7, 16]: 2 µg/mL (≈ 5.54 µM)
MIC [13]: 1 to 2 µg/mL (≈ 2.77 to 5.54 µM)
MIC [8, 18]: 8 µg/mL (≈ 22.2 µM)
MIC [9, 19]: 2 µg/mL (≈ 5.54 µM)
MIC [10, 21]: 4 µg/mL (≈ 11.1 µM)
MIC [11, 23]: 2 µg/mL (≈ 5.54 µM)
MIC [14]: 0.5 to 4 µg/mL (≈ 1.39 to 11.1 µM)
MIC [12, 25]: 4 µg/mL (≈ 11.1 µM)
Molecule: [H]/N=C(\N)NN=C1CCCc2cc(OCc3ccc(F)c(Cl)c3)ccc21 [Compound 1U, (E)-2-(6-((3-chloro-4-fluorobenzyl)oxy)-3,4-dihydronaphthalen-1(2H)-ylidene)hydrazine-1-carboximidamide]
MBC ([1]; Pseudomonas aeruginosa, ATCC27853, read-out: MBC): > 32 µg/mL
MBC [2, 17]: 32 µg/mL (≈ 88.7 µM)
MBC [3, 17]: 2 µg/mL (≈ 5.54 µM)
MBC [4, 17]: 8 µg/mL (≈ 22.2 µM)
MBC [5, 17]: 4 µg/mL (≈ 11.1 µM)
MBC [6, 17]: 4 µg/mL (≈ 11.1 µM)
MBC [7, 17]: 4 µg/mL (≈ 11.1 µM)
MBC ([8]; Klebsiella pneumoniae, ATCC700603, read-out: MBC): 32 µg/mL (≈ 88.7 µM)
MBC [9, 20]: 4 µg/mL (≈ 11.1 µM)
MBC [10, 22]: 16 µg/mL (≈ 44.3 µM)
MBC [11, 24]: 16 µg/mL (≈ 44.3 µM)
MBC [12, 26]: 16 µg/mL (≈ 44.3 µM)
